Several values for one entry are separate records, joined by “and”; a condition that tells them apart may be missing. Identical values can stand only once.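 How tested: cells in 96-well plates exposed to compound for 48 hours at five concentrations. The concentration for 50% growth inhibition is given as GI50. TGI: total growth inhibition.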 Where a SMILES comes first, the peptide text is derived from it. [ ]: non-standard residue; d: D form. The star is where a group is joined. Bn2Val = CC(C)[C@@H](C(=O)*)N(Cc1ccccc1)Cc1ccccc1; NMeV = CN[C@H](C(=O)O)C(C)C; X29 = COc1ccc(CN*)c(OC)c1; dNMeA = CN[C@H](C)C(=O)O
Tests used:
Experiment in all cases: NCI tumour cell line growth inhibition, 48 h
KM12 colon = tested on: KM12 colon
NCI-H460 lung = tested on: NCI-H460 lung
EKVX NSCLC = tested on: EKVX NSCLC
NCI-H226 lung = tested on: NCI-H226 lung
HOP-92 NSCLC = tested on: HOP-92 NSCLC
SK-MEL-2 melanoma = tested on: SK-MEL-2 melanoma
T-47D breast = tested on: T-47D breast
RPMI-8226 leukemia = tested on: RPMI-8226 leukemia
SF-539 CNS = tested on: SF-539 CNS
SK-MEL-5 melanoma = tested on: SK-MEL-5 melanoma
NCI-H522 lung = tested on: NCI-H522 lung

| SMILES | TGI (KM12 colon) [µM] | TGI (NCI-H460 lung) [µM] | TGI (EKVX NSCLC) [µM] | TGI (NCI-H226 lung) [µM] | TGI (HOP-92 NSCLC) [µM] | TGI (SK-MEL-2 melanoma) [µM] | TGI (T-47D breast) [µM] | TGI (RPMI-8226 leukemia) [µM] | TGI (SF-539 CNS) [µM] | TGI (SK-MEL-5 melanoma) [µM] | TGI (NCI-H522 lung) [µM] | GI50 (KM12 colon) | GI50 (HOP-92 NSCLC) | GI50 (NCI-H522 lung) [µM] | GI50 (NCI-H460 lung) [µM] | GI50 (NCI-H226 lung) [µM] | GI50 (SK-MEL-2 melanoma) [µM] | GI50 (T-47D breast) [µM] | GI50 (RPMI-8226 leukemia) [µM] | GI50 (SK-MEL-5 melanoma) [µM] |
| --- | --- | --- | --- | --- | --- | --- | --- | --- | --- | --- | --- | --- | --- | --- | --- | --- | --- | --- | --- | --- |
| Cc1nnc2n(c1=O)CCN2C | > 100 | > 100 | > 100 | > 100 | > 100 | > 100 | > 100 | > 100 | > 100 | > 100 |  |  |  |  |  |  |  |  |  |  |
| CCCCCCCCCC(=O)N[C@@H](c1ccco1)[C@@H](O)C(=O)O[C@H]1C[C@@]2(O)[C@@H](OC(=O)c3ccccc3)[C@@H]3[C@]4(OC(C)=O)CO[C@@H]4C[C@H](O)[C@@]3(C)C(=O)[C@H](OC(C)=O)C(=C1C)C2(C)C | 8.44 | 8.9 | > 50 | 9.53 | 21.2 |  | 1.42 | 0.0483 | 0.17 | 2.25 | 0.631 |  |  |  |  |  |  |  |  |  |
| COc1ccc(C(Cc2ccccc2)C2NC(=S)NC2=O)cc1 (centres undefined) | > 25 | > 25 | > 25 | > 25 | > 25 | > 25 | > 25 | > 25 | > 25 | > 25 | > 25 |  |  |  |  |  |  |  |  |  |
| CC(=O)NC1=C(NCCCl)C(=O)c2ccccc2C1=O | > 100 | > 100 | > 100 | > 100 | > 100 |  | 84.1 | > 100 | > 100 | 30.5 | 59.3 |  |  |  |  |  |  |  |  |  |
| O=CC(O)C(O)C(O)C1CNC(=S)O1 (centres undefined) | > 100 | > 100 | > 100 | > 100 | > 100 | > 100 | > 100 | > 100 | > 100 | > 100 | > 100 |  |  |  |  |  |  |  |  |  |
| COC(=O)c1c(C)cccc1C1CN=NC12Cc1ccc(C)c(C)c1C2=O (centres undefined) | > 100 | > 100 | 82.5 | > 100 | > 100 |  | 13.1 | > 100 | > 100 |  | 75.4 |  |  |  |  |  |  |  |  |  |
| CC12CCCCC1=[N+]([O-])C(C)(C)N2O (centres undefined) | > 100 | > 100 | > 100 | > 100 | > 100 | > 100 | > 100 | > 100 | > 100 | > 100 |  |  |  |  |  |  |  |  |  |  |
| COC(=O)c1c(CC(Cc2ccc3c(c2)CCCC3)C(=O)OC)ccc2c1CCCC2 (centres undefined) | > 100 | > 100 | 77.1 |  | > 100 | > 100 | > 100 | > 100 | > 100 | > 100 | > 100 |  |  |  |  |  |  |  |  |  |
| O=C1CC(C(OCc2ccccc2)C(OCc2ccccc2)C(COCc2ccccc2)OCc2ccccc2)CC(=O)N1 (centres undefined) | > 100 | > 100 | > 100 | > 100 | > 100 |  | 65.6 | > 100 | > 100 | > 100 |  | > 100 µM and 37.9 µM | 90.7 µM and 30.3 µM |  |  |  |  |  |  |  |
| Cc1nc2n(c1/C=C1/C(=O)Nc3ccccc31)CCS2 | > 100 | > 100 | > 100 |  | > 100 | 26.2 | > 100 | > 100 | > 100 | > 100 | > 100 |  |  |  |  |  |  |  |  |  |
| O=S(=O)(c1ccc(-c2nnc(-c3ccc(F)cc3)o2)cc1)c1ccc(-c2nnc(-c3ccc(F)cc3)o2)cc1 | > 100 | > 100 | > 100 | > 100 | > 100 | > 100 | > 100 | > 100 | > 100 | > 100 | > 100 |  |  |  |  |  |  |  |  |  |
| CC(C)(C)CC(C)(C)NC(=S)NO | > 100 | > 100 | > 100 | > 100 | > 100 | > 100 | > 100 | > 100 | > 100 | > 100 | > 100 |  |  |  |  |  |  |  |  |  |
| O=[N+]([O-])c1ccc2oc(=Nc3ccccc3)c(Nc3ccccc3)nc2c1 | > 100 | > 100 | > 100 | > 100 | 93 | > 100 | > 100 | > 100 | > 100 | > 100 | 67.2 |  |  |  |  |  |  |  |  |  |
| CC(=O)OC1C2CCC3C(C)(O)C4CC(O)C(C)(C)C4(O)C(O)CC13CC2(C)O (centres undefined) | > 100 |  | > 100 | > 100 | > 100 | > 100 | > 100 | > 100 | > 100 | > 100 | > 100 |  |  |  |  |  |  |  |  |  |
| Oc1ccccc1C1C=C(c2ccccc2)NC(N2CCCCC2)=C1c1nc2ccccc2[nH]1 (centres undefined) | 31.3 | 28 | 18.8 | 35.1 | 26.9 |  | 40.4 | 49 | 29.7 | 27 | 27.7 |  |  |  |  |  |  |  |  |  |
| CO[C@H]1O[C@@H]2CO[C@@H](c3ccccc3)O[C@H]2[C@@H]2C/C=C\CCC[C@@]12O | 54.9 | 33 | 45.8 | 40 | 43.7 | 34.2 | > 100 | 44.2 |  | 31.7 | 43.4 |  |  |  |  |  |  |  |  |  |
| O=C(Sc1c(-c2ccccc2)c(=O)n(-c2ccccc2)c(=S)n1-c1ccccc1)c1cccs1 | > 100 | > 100 | > 100 | > 100 | > 100 | > 100 | > 100 | > 100 |  | 95.1 | > 100 |  |  |  |  |  |  |  |  |  |
| NC(Cc1c[nH]c2cc([N+](=O)[O-])ccc12)C(=O)O (centres undefined) | > 100 | > 100 | > 100 | > 100 | > 100 | > 100 | > 100 | > 100 | > 100 | > 100 | > 100 |  |  |  |  |  |  |  |  |  |
| COc1ccc(CNC(=O)[C@@H]2CCCN2C(=O)[C@@H](C)N(C)C(=O)[C@H](C(C)C)N(C)C(=O)[C@@H](NC(=O)[C@H](C(C)C)N(Cc2ccccc2)Cc2ccccc2)C(C)C)c(OC)c1 (Bn2Val-V[NMeV][dNMeA]P-X29) | 5.78 | 15.5 | 12 | 22.1 | 9.1 | 3.45 | 96 | 17.2 | 4.69 |  | 24.2 |  |  |  |  |  |  |  |  |  |
| CCN(CC)CCCNC(=O)c1cc2cc(NC(=O)c3cc4cc([N+](=O)[O-])ccc4[nH]3)ccc2[nH]1 | > 100 | > 100 | > 100 | > 100 | > 100 | > 100 | > 100 | > 100 | > 100 | > 100 |  |  |  |  |  |  |  |  |  |  |
| OCC(CCc1ccccc1I)C1=CCC2(CC1)OCCO2 (centres undefined) | 31 | 57.7 | 58.4 | 88.2 | 28.6 | 51 | 42.3 | > 100 | 32.5 | 27.8 | 30.3 |  |  |  |  |  |  |  |  |  |
| C=C(C)C1CC/C(C)=C/CC[C@]2(C)O[C@@H]2CCC2=CC1OC2=O (some centres undefined) | > 100 | > 100 |  | > 100 | > 100 | > 100 | > 100 | 22.2 |  | > 100 | > 100 | 21.6 µM | 14.4 µM | > 100 | > 100 | > 100 | 57.5 | 18.5 | 10.5 | 78.8 |
| Cn1c([C@H](C#N)C(=O)c2cc(O)ccc2[N+](=O)[O-])nc2ccccc21 | > 100 | > 100 | > 100 |  | > 100 | > 100 | > 100 | > 100 | > 100 | > 100 | > 100 |  |  |  |  |  |  |  |  |  |
| CC(C)(O)C1CC[C@]2(C)[C@H]3CC[C@@H]4[C@@]5(C)CCCC(C)(C)[C@@H]5CC[C@@]4(C)[C@]3(C)CC[C@@H]12 (some centres undefined) | > 100 | > 100 | > 100 |  | > 100 | > 100 | > 100 | > 100 | > 100 | > 100 | > 100 |  |  |  |  |  |  |  |  |  |
| O=C1C=C2CCC[C@H]3OC(=O)C[C@@]23CC1 | > 100 | > 100 | > 100 | > 100 | > 100 | > 100 | > 100 | > 100 | > 100 | > 100 | > 100 |  |  |  |  |  |  |  |  |  |
| Cc1c(OCc2ccccc2)c(=O)ccn1CCc1c[nH]c2ccccc12 | > 100 | > 100 | > 100 |  | 51.3 | 48.2 | 58.1 | 59.3 | > 100 | 35.3 | 69.4 |  |  |  |  |  |  |  |  |  |
| Cc1ccc(-c2cc(O)c3nc4ccccc4n3c2)cc1 | > 100 | > 100 | > 100 | > 100 | > 100 |  | > 100 | > 100 | > 100 |  | > 100 |  |  |  |  |  |  |  |  |  |
| COc1ccccc1N=Nc1c(O)c(S(=O)(=O)O)cc2cc(S(=O)(=O)O)ccc12 | > 100 |  | > 100 | > 100 | > 100 | > 100 | > 100 | > 100 |  | > 100 | > 100 |  |  |  |  |  |  |  |  |  |
| CS[C@]12[C@@H]3C(=O)N(C)C(=O)[C@@H]3[C@](C)(C(=O)N1C)C(=O)N2c1ccccc1 | > 100 |  | > 100 | > 100 | > 100 | > 100 | > 100 | > 100 | > 100 | > 100 | > 100 |  |  |  |  |  |  |  |  |  |

Reference: PubChem BioAssay (NCI)
